Reference: patent US20170253607A1, “LONG-ACTING HIV PROTEASE INHIBITOR” (Shionogi & Co., Ltd., priority 2014, published 2017)

Legend:
[1] = Protein binding test (equilibrium dialysis, unbound ratio fu in serum); assay type: in vitro ADME; settings: rat serum, equilibrium dialysis 24 hours, 37° C., 2 μg/mL
Outline: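 Compound at 2 μg/mL in serum was dialysed against PBS for 24 hours at 37° C. Both sides were quantified by LC/MS/MS, and fu was taken as the PBS concentration divided by the serum concentration.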

[2] = Evaluation of total body clearance (CLtot), intravenous administration; assay type: in vivo, Sprague-Dawley (SD); settings: rat (SD), intravenous administration 0.5-10 mg/kg; CLtot = dose/AUC
Outline: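 Plasma levels quantified by LC/MS/MS after intravenous tail-vein dosing (0.5-10 mg/kg, compound-dependent; n=2-3). AUC from pharmacokinetic analysis; total clearance calculated as dose/AUC.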

HIV-1 PR = HIV-1 PR (Human immunodeficiency virus type 1 group M subtype B, UniProt P04585); test: HIV-protease inhibitory activity assay (FRET peptide substrate); assay type: biochemical; settings: Test Example 1
Outline: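 HIV-1 PR (0.83 ng) preincubated with compounds 20 min at room temperature in 0.1 mol/L NaAc, 0.5 mol/L NaCl, 1 mmol/L EDTA, 1 mmol/L DTT, 0.05% Tween 20, pH 4.8. Cleavage of HiLyte Fluor 488/QXL 520 FRET peptide (2 μmol/L) read after 60 minutes at 485/535 nm; IC50 from four-parameter logistic fit.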

SMILES	rat_fu [1]	rat_CLt [2]	IC50 (HIV-1 PR)
COc1ccc(S(=O)(=O)N(CC(C)C)CC(O)C(Cc2ccc(OCc3ccccc3-c3sc(N(C4CCCCC4)C4CCCCC4)nc3C(=O)O)cc2)NC(=O)OC2COC3(C)OCCC23)cc1 (stereo not drawn) [Compound I-74]	<0.1%	3.88 mL/min/kg	1.71 nM
COc1ccc(S(=O)(=O)N(CC(C)C)CC(O)C(Cc2ccc(NCc3cccc(F)c3-c3sc4c(c3C(=O)O)CC(C)(C)CC4)cc2)NC(=O)OC2COC3(C)OCCC23)cc1 (stereo not drawn) [Compound I-277]	<0.1%	0.512 mL/min/kg	1.94 nM
COc1ccc(S(=O)(=O)N(CC(C)C)CC(O)C(Cc2ccc(N3CCC(Oc4ccc(-c5sc6c(c5C(=O)O)CC(C)(C)CC6)cc4)C3)cc2)NC(=O)OC2COC3(C)OCCC23)cc1 (stereo not drawn) [Compound I-351]	<0.1%	3.08 mL/min/kg	5.09 nM
COc1ccc(S(=O)(=O)N(CC(C)C)CC(O)C(Cc2ccc(NCc3ccc(OC)cc3-c3sc4c(c3C(=O)O)CC(C)(C)CC4)cc2)NC(=O)OC2COC3(C)OCCC23)cc1 (stereo not drawn) [Compound I-274]	<0.1%	0.659 mL/min/kg	2.11 nM
COc1ccc(S(=O)(=O)N(CC(C)C)CC(O)C(Cc2ccc(OCc3ccccc3-n3nc4c(c3C(=O)O)CC(C)(C)CC4)cc2)NC(=O)OC2COC3OCCC23)cc1 (stereo not drawn) [Compound I-807]	<0.1%	0.61 mL/min/kg	0.86 nM
COc1ccc(S(=O)(=O)N(CC2CCCC2)CC(O)C(Cc2ccc(OCc3ccccc3-n3nc4c(c3C(=O)O)CC(C)(C)CC4)cc2)NC(=O)OC2COC3(C)OCCC23)cc1 (stereo not drawn) [Compound I-139]	<0.1%	0.286 mL/min/kg	0.78 nM
COc1ccc(S(=O)(=O)N(CC(C)C)CC(O)C(Cc2ccc(OC3CCCN(c4ccccc4-c4sc5c(c4C(=O)O)CC(C)(C)CC5)C3)cc2)NC(=O)OC2COC3(C)OCCC23)cc1 (stereo not drawn) [Compound I-102]	<0.1%	4.24 mL/min/kg	3.83 nM
COc1ccc(S(=O)(=O)N(CC(C)C)CC(O)C(Cc2ccc(OCc3nccnc3-c3ccc(-c4sc5c(c4C(=O)O)CC(C)(C)CC5)cc3)cc2)NC(=O)OC2COC3(C)OCCC23)cc1 (stereo not drawn) [Compound I-195]	<0.1%	6.74 mL/min/kg	2.15 nM
COc1ccc(S(=O)(=O)N(CC(C)C)CC(O)C(Cc2ccc(NCc3cc(C#N)ccc3-c3sc4c(c3C(=O)O)CC(C)(C)CC4)cc2)NC(=O)OC2COC3(C)OCCC23)cc1 (stereo not drawn) [Compound I-256]	<0.1%	3.83 mL/min/kg	2.82 nM
COc1ccc(S(=O)(=O)N(CC(C)C)CC(O)C(Cc2ccc(NCc3cc(F)ccc3-c3sc4c(c3C(=O)O)CC(C)(C)CC4)cc2)NC(=O)OC2COC3(C)OCCC23)cc1 (stereo not drawn) [Compound I-271]	<0.1%	2.42 mL/min/kg	2.23 nM
COc1ccc(S(=O)(=O)N(CC(C)C)CC(O)C(Cc2ccc(OC3CCC(c4ccc(C(F)(F)F)cc4-c4sc5c(c4C(=O)O)CC(C)(C)CC5)C3)cc2)NC(=O)OC2COC3(C)OCCC23)cc1 (stereo not drawn) [Compound I-343]	<0.1%	3.31 mL/min/kg	15.9 nM
COc1ccc(S(=O)(=O)N(CC2CCCC2)CC(O)C(Cc2ccc(OCc3cc(C(F)(F)F)ccc3-n3nc4c(c3C(=O)O)CC(C)(C)CC4)cc2)NC(=O)OC2COC3(C)OCCC23)cc1 (stereo not drawn) [Compound I-365]	<0.1%	0.119 mL/min/kg	3.2 nM
COc1ccc(S(=O)(=O)N(CC(C)C)C[C@@H](O)[C@H](Cc2ccc(OCc3ccccc3-c3sc4c(c3C(=O)O)CC(C)(C)CC4)cc2)NC(=O)OC2CO[C@H]3OC[C@H](OC)[C@@H]23)cc1 (stereo partly drawn) [Compound I-907]	<0.1%	0.73 mL/min/kg	1.27 nM
COc1ccc(S(=O)(=O)N(CC(C)C)CC(O)C(Cc2ccc(CN(C)Cc3ccc(-c4sc5c(c4C(=O)O)CC(C)(C)CC5)cc3)cc2)NC(=O)OC2COC3(C)OCCC23)cc1 (stereo not drawn) [Compound I-267]	<0.1%	5.01 mL/min/kg	2.4 nM
COC(=O)NC(C(=O)NC(Cc1ccc(-c2sc3c(c2C(=O)O)CC(C)(C)CC3)cc1)C(O)CC(Cc1ccccc1F)C(=O)NC1c2cc(F)cc(Cl)c2OCC1O)C(C)(C)C (stereo not drawn) [Compound I-903]	<0.1%	0.0436 mL/min/kg	2.23 nM
COc1ccc(S(=O)(=O)N(CC(C)C)C[C@@H](O)[C@H](Cc2ccc(NC[C@H]3CCCC[C@H]3c3sc4c(c3C(=O)O)CC(C)(C)CC4)cc2)NC(=O)O[C@H]2CO[C@@]3(C)OCC[C@@H]23)cc1 [Compound I-247]	<0.1%	0.148 mL/min/kg	2.25 nM
COc1ccc(S(=O)(=O)N(CC(C)C)CC(O)C(Cc2ccc(NCC3(O)CCCC3c3sc4c(c3C(=O)O)CC(C)(C)CC4)cc2)NC(=O)OC2COC3(C)OCCC23)cc1 (stereo not drawn) [Compound I-334]	<0.1%	3.87 mL/min/kg	1.91 nM
COc1ccc(S(=O)(=O)N(CC(C)C)C[C@@H](O)[C@H](Cc2ccc(OC(C)(C)C(=O)Nc3sc4c(c3C(=O)O)CC(C)(C)CC4)cc2)NC(=O)O[C@H]2CO[C@@]3(C)OCC[C@@H]23)cc1 [Compound I-7]	<0.1%	0.238 mL/min/kg	2.31 nM
COc1ccc(S(=O)(=O)N(CC(C)C)C[C@@H](O)[C@H](Cc2ccc(OCc3ccccc3-c3sc4c(c3C(=O)O)CC(C)(C)CC4)cc2)NC(=O)[C@H](CC(N)=O)NC(=O)c2ccc3ccccc3n2)cc1 [Compound I-30]	<0.1%	1.52 mL/min/kg	3.67 nM
COc1ccc(S(=O)(=O)N(CC(C)C)CC(O)C(Cc2ccc(NCC3=C(c4sc5c(c4C(=O)O)CC(C)(C)CC5)CCOC3)cc2)NC(=O)OC2COC3(C)OCCC23)cc1 (stereo not drawn) [Compound I-362]	<0.1%	4.62 mL/min/kg	3.07 nM
COc1ccc(S(=O)(=O)N(CC(C)C)CC(O)C(Cc2ccc(CCc3sc4c(c3C(=O)O)CC(C)(C)CC4(C)C)cc2)NC(=O)OC2COC3(C)OCCC23)cc1 (stereo not drawn) [Compound I-105]	<0.1%	2.29 mL/min/kg	2.42 nM
COc1ccc(S(=O)(=O)N(CC(C)C)CC(O)C(Cc2ccc(OCc3ncc(Cl)cc3-c3sc4c(c3C(=O)O)CC(C)(C)CC4)cc2)NC(=O)OC2COC3(C)OCCC23)cc1 (stereo not drawn) [Compound I-93]	<0.1%	2.22 mL/min/kg	0.99 nM
Cc1cc(Oc2ccc(CC(NC(=O)OC3COC4OCCC34)C(O)CN(CC(C)C)S(=O)(=O)c3ccc4c(c3)OCO4)cc2)ccc1-c1sc2c(c1C(=O)O)CC(C)(C)CC2 (stereo not drawn) [Compound I-835]	<0.1%	1.63 mL/min/kg	2.81 nM
COc1ccc(S(=O)(=O)N(CC(C)C)CC(O)C(Cc2ccc(OCc3ncccc3-c3sc4c(c3C(=O)O)CC(C)(C)CC4)cc2)NC(=O)OC2COC3OCCC23)cc1 (stereo not drawn) [Compound I-827]	<0.1%	4.21 mL/min/kg	0.81 nM
COc1ccc(S(=O)(=O)N(CC(C)C)CC(O)C(Cc2ccc(N3CCC(Oc4ccccc4-c4sc5c(c4C(=O)O)CC(C)(C)CC5)C3)cc2)NC(=O)OC2COC3(C)OCCC23)cc1 (stereo not drawn) [Compound I-234]	<0.1%	1.49 mL/min/kg	3.5 nM
